Laboratory results: PMC5748433, “Study on the effect of EMD386088, a 5-HT6 receptor partial agonist, in enhancing the anti-immobility action of some antidepressants in rats” (Naunyn-Schmiedeberg's Archives of Pharmacology, 2017)

Key:
rats [1] = test system: rats; set-up: method as in Jastrzębska-Więsek et al. [2015]; settings: EMD386088 alone 5 mg/kg i.p., ref Jastrzębska-Więsek et al. [2015]; cited from earlier work
dopamine D3 = test system: dopamine D3; set-up: method as in Jastrzębska-Więsek et al. [2013]; settings: ref Jastrzębska-Więsek et al. [2013]; cited from earlier work
α2-adrenoceptors = test system: α2-adrenoceptors; set-up: method as in Jastrzębska-Więsek et al. [2013]; settings: ref Jastrzębska-Więsek et al. [2013]; cited from earlier work
rats [2] = test: Modified forced swim test (FST) in rats; type: in vivo, rat; settings: EMD386088 alone 2.5 mg/kg i.p.
Description: […]. All drugs were dissolved in distilled water immediately before administration in a volume of 2 mL/kg. All the compounds were administered intraperitoneally (i.p.). […] Control animals received vehicle according to the same schedule.
The experiment was carried out according to the modified by Detke et al. ([1995]) method of Porsolt et al. ([1978]). On the first day of an experiment, the animals were gently individually placed in Plexiglas cylinders (40 cm high, 18 cm in diameter) containing 30 cm of water maintained at 23–25 °C for 15 min. On removal from water, the rats were placed for 30 min in a Plexiglas box under 60-W bulb to dry. On the following day (24 h later), the rats were re-placed in the cylinder and the total duration of immobility, swimming, and climbing was recorded during the whole 5-min test period. The swimming behavior entailed active swimming motions, e.g., moving horizontally around in the cylinder. Climbing activity consisted of upward directed movements of the forepaws along the side of the swim chamber, and immobility was assigned when no additional activity was observed other than that necessary to keep the rat’s head above the water (Detke et al. [1995]). Fresh water was used for each animal.
The data of behavioral studies were evaluated using two-way analysis of variance (ANOVA) followed by Bonferroni’s post hoc test, p < 0.05 was considered significant.

recombinant human CYP2D6 = biological target: T1, recombinant human CYP2D6 (Homo sapiens, UniProt P10635); test: Luminescent CYP2D6 P450-Glo assay; type: in vitro ADME; settings: read-out: IC 50 CYP2D6
T1 construct: purchased Promega (Madison, WI, USA)
T1 sequence (P10635 whole entry): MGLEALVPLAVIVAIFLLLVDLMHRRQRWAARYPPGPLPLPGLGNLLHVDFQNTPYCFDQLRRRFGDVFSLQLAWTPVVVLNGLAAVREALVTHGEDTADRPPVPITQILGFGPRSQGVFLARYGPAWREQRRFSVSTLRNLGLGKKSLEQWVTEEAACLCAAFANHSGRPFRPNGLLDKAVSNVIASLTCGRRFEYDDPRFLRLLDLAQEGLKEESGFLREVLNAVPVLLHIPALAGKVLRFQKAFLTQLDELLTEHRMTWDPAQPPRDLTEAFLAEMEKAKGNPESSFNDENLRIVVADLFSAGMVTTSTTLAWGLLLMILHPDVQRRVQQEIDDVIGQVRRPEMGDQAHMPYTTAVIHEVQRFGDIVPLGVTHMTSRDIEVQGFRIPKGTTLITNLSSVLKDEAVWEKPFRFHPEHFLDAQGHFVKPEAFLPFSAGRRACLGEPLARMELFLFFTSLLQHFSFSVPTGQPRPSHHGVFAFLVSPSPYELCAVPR
Description: The enzymatic reactions were performed in white polystyrene, flat-bottom Nunc™ MicroWell™ 96-Well Microplates (Thermo Scientific, Waltham, MA USA). The luminescence signal was measured with a microplate reader in luminescence mode (EnSpire, PerkinElmer, Waltham, MA USA).

Cc1[nH]c2ccc(Cl)cc2c1C1=CCNCC1.Cl [EMD386088, 5-chloro-2-methyl-3-(1,2,3,6-tetrahydro-4-pyridinyl)-1H-indole hydrochloride]
antidepressant-like effect in the FST (rats [1]): exerts an antidepressant-like effect
affinity for dopamine D3 (dopamine D3): no affinity
affinity for α2-adrenoceptors (α2-adrenoceptors): no affinity
activity in the FST (rats [2]): not active
IC50 (recombinant human CYP2D6): 2.25 µM
